# Publication PMC6271716, “Design, Synthesis and SAR Studies of NAD Analogues as Potent Inhibitors towards CD38 NADase” (Molecules, 2014)
# Target: T1, CD38 NADase (Homo sapiens, UniProt P28907, N100D/N164D/N209D/N219D)
# T1 construct: pPICZαA carrying the C-terminus of CD38 (AA46-300, with the four glycosylation sites mutated); made in house; host or cells: Pichia pastoris X33 (pPICZαA vector)
# T1 sequence (P28907 46-300 N100D/N164D/N209D/N219D): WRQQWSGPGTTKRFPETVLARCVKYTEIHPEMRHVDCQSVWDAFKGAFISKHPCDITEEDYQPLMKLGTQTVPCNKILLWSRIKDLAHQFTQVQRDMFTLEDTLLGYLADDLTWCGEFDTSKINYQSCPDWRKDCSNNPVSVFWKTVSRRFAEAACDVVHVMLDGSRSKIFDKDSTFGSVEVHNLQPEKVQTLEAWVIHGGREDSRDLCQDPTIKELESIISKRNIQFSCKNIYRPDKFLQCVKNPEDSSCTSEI
# Experiment: Enzyme activity assay: inhibition of the NAD-glycohydrolase (NADase) activity of recombinant CD38 (NAD cycling assay)
# Assay type: biochemical
# Settings: recombinant CD38 0.3 ng, 2 h preincubation at room temperature, NAD 2.5 µM
# Experimental: Enzyme inhibition assays. The inhibitory activities to CD38 NADase of NAD analogues were evaluated by the method reported before. In this method, the inhibitions of NADase activities were calculated from the decrease of the NAD content.
# Recombinant CD38, produced with a yeast expression system (Invitrogen, Carlsbad, CA, USA) was used to prepare the recombinant CD38 as reported previously. Briefly, pPICZαA carrying the C-terminus of CD38 (AA46-300, with the four glycosylation sites mutated, N100D, N164D, N209D and N219D) was transformed Pichia pastoris yeast, X33. The recombinant CD38 was induced by methanol and purified by phenylsepharose chromatography and cation exchange chromatography (SP column, GE Healthcare, Little Chalfont, UK). All the chemicals used in the enzymatic assays were purchased from Sigma (Santa Clara, CA, USA).
# To study the inhibition of the NAD-glycohydrolase (NADase) activity of CD38 by the compounds, an enzymatic assay was performed. Briefly, different concentrations of the compound were mixed with recombinant CD38 (0.3 ng) and bovine serum albumin (1 µg) in a 16 µL-reaction mixture, then incubated in the dark for 2 hours at room temperature. NAD was added to the mixture to a final concentration of 2.5 µM to start the reaction. Aliquots (4 µL) of the reaction mixtures were withdrawn at 0, 4, 8 and 12 min, and the reaction was stopped by adding 4 µL of 0.6 M HCl, followed by neutralization with 8 µL of 0.5 M phosphate buffer, pH 8. The subsequent cycling reaction was conducted in 96-well plate with 16 µL of the sample mixed with 100 µL of the reagent containing 2% ethanol, 100 µg/mL alcohol dehydrogenase, 20 µM resazurin, 11 µg/mL diaphorase, 10 µM flavin mononucleotide and 100 mM sodium phosphate, pH 7. The cycling reaction was allowed to proceed for 10 min and the rate of fluorescence increase of resorufin (with excitation at 544 nm and emission at 590 nm) was measured using the Infinite M200 fluorescence plate reader (TECAN, Grödig, Austria). The relative NAD content was measured from the slope of fluorescence increase and the NAD-glycohydrolase activity was calculated from the decrease of NAD content at 0, 4, 8 and 12 min after the reaction started. As a control, each compound was directly added to the cycling reaction system with corresponding concentration to evaluate the potential interference to the cycling assay itself. IC50 values of inhibitors were calculated by the GraphPad Prism 5 software (GraphPad Software, Inc., La Jolla, CA, USA).
row,"IC50, inhibitory activities of CD38 NADase",SMILES
1,n.s.,"C[C@@]1(F)[C@H](O)[C@@H](COP(=O)(O)CP(=O)(O)OC[C@H]2O[C@@H]([n+]3cccc(C(N)=O)c3)[C@](C)(F)[C@@H]2O)O[C@H]1[n+]1cccc(C(N)=O)c1 [Compound 22, Bis(2′-deoxy-2′-fluoro-2′-methyl-β-nicotinamide)-methylenediphosphonate]"

# Same assay, conditions: recombinant CD38 0.3 ng, 2 h preincubation at room temperature, NAD 2.5 µM; read-out: IC50, inhibitory activities of CD38 NADase
row,SMILES,IC50 [µM]
1,"NC(=O)c1ccc[n+]([C@@H]2O[C@H](COP(=O)(O)CP(=O)(O)OC[C@H]3O[C@@H]([n+]4cccc(C(N)=O)c4)[C@@H](F)[C@@H]3O)[C@@H](O)[C@@H]2F)c1 [Compound 21, Bis(2′-deoxy-2′-fluoro-β-nicotinamide-arabinosyl)-methylenediphosphonate]",7.98
2,"NC(=O)c1ccc[n+]([C@@H]2O[C@H](COP(=O)(O)OP(=O)(O)OC[C@H]3O[C@@H]([n+]4cccc(C(N)=O)c4)[C@@H](F)[C@@H]3O)[C@@H](O)[C@@H]2F)c1 [Compound 20, Bis(2′-deoxy-2′-fluoro-β-nicotinamide-arabinosyl) pyrophophate]",0.575
3,"NC(=O)c1ccc[n+](C2OC(CSP(=O)(O)OP(=O)([O-])OCC3OC(n4cnc5c(N)ncnc54)C(O)C3O)C(O)C2F)c1 (stereo not drawn) [Compound 10, 2′-Deoxy-2′-fluoro-5′-thio-phosphate-arabinofuranoside-β-nicotinamide adenine dinucleotide]",0.341
4,"NC(=O)c1ccc[n+](C2OC(COP(=O)([O-])OP(=O)(O)OCC3OC(n4cnc5c(=O)[nH]c(N)nc54)C(O)C3O)C(O)C2F)c1 (stereo not drawn) [Compound 13, 2′-Deoxy-2′-fluoro-arabinosyl-β-nicotinamide guanine dinucleotide]",0.0893
5,"CC1(F)C(O)C(COP(=O)([O-])OP(=O)(O)OCC2OC(n3cnc4c(N)ncnc43)C(O)C2O)OC1[n+]1cccc(C(N)=O)c1 (stereo not drawn) [Compound 7, 2′-Deoxy-2′-fluoro-2′-methyl-β-nicotinamide adenine dinucleotide]",1810
6,"NC(=O)c1ccc[n+]([C@@H]2O[C@H](COP(=O)([O-])OP(=O)(O)OC[C@H]3O[C@@H](n4cnc5c(N)ncnc54)[C@H](O)[C@@H]3O)[C@@H](O)[C@@H]2F)c1 [Compound 23, 2′-deoxy-2′-fluoroarabinosyl-β-nicotinamide adenine dinucleotide, reference compound]",0.0611
7,"NC(=O)c1ccc[n+](C2OC(COP(=O)([O-])OP(=O)(O)OCC3OC(n4cnc5c(=O)[nH]cnc54)C(O)C3O)C(O)C2F)c1 (stereo not drawn) [Compound 12, 2′-Deoxy-2′-fluoro-arabinosyl-β-nicotinamide hypoxanthine dinucleotide]",0.109
8,"COc1ncnc2c1ncn2C1OC(COP(=O)(O)OP(=O)([O-])OCC2OC([n+]3cccc(C(N)=O)c3)C(F)C2O)C(O)C1O (stereo not drawn) [Compound 19, 2′-Deoxy-2′-fluoro-arabinosyl-β-nicotinamide 6-O-methyl-hypoxanthine dinucleotide]",0.133
9,"NC(=O)c1ccc[n+]([C@@H]2O[C@H](COP(=O)(O)O)[C@@H](O)[C@@H]2F)c1 [Compound 8, 2′-deoxy-2′-fluoroarabinosyl-β-nicotinamide mononucleotide, reference compound]",0.297
10,"NC(=O)c1ccc[n+](C2OC(COP(=O)([O-])OP(=O)(O)OP(=O)(O)OCC3OC(n4cnc5c(N)ncnc54)C(O)C3O)C(O)C2F)c1 (stereo not drawn) [Compound 11, P^1-(Adenosine)-P^3-(2′-deoxy-2′-fluoro-β-nicotinamide arabinofuranoside) triphosphate]",1.15

# Same assay, conditions: recombinant CD38, NAD 2.5 µM
row,SMILES,"inhibition of CD38 NADase, in words"
1,"CC1(F)C(O)C(COP(=O)([O-])OP(=O)(O)OCC2OC(n3cnc4c(N)ncnc43)C(O)C2O)OC1[n+]1cccc(C(N)=O)c1 (stereo not drawn) [Compound 7, 2′-Deoxy-2′-fluoro-2′-methyl-β-nicotinamide adenine dinucleotide]",weak inhibition
